Experiments:
Assay type in all cases: cell-based, Helicobacter pylori
[1] = test system: H. pylori; test: Anti H. pylori screening by disc diffusion susceptibility assay; set-up: key: strongly active (3^+, diameter>30 mm); intermediate active (2^+, ˜20-30 mm diameter); moderately active (1^+, ˜10-20 mm diameter); not active (<10 mm diameter); conditions: two doses, majority of the strains
Procedure: (§1) The discs were impregnated with […] of each of the compounds, dissolved either in ethanol or DMSO, and the zone of inhibition was measured after 72 h of growth under microaerophilic conditions at 37° C. Inhibition zone diameter ranging 10-20 mm was given a score of ^+, 20-30 mm as ^++ and that of >30 mm as ^+++, as obtained employing dose range of […]/disc. The detailed structural information of the molecules is provided under ‘Description of the Compounds’.
(§2) Methods and protocols for the determination of inhibition zone diameter are as stated under Experiment 1, and that of MIC values by microbroth dilution assay as in Experiment 3. ‘Nil’ means zone of inhibition below 10 mm.
(§3) The anti H. pylori activity of all 16 flavonoid molecules, 2 naturally isolated and 14 synthetic derivatives, was screened by disc diffusion sensitivity assay employing 2 clinical strains HP001 and HP002, and three standard strains ATCC® 700392, 43504 and 49503. A 0.5 mL inoculum (10^8 CFU/mL) for each bacterial strain tested was flooded on freshly prepared Brain Heart Infusion (BHI) agar plates supplemented with 7% FCS, 0.5% IsoVitalex and 0.0025% DENT® and the discs (5 mm diameter) containing different compounds or antibiotics (dissolved either in ethanol or DMSO) were placed on the agar surface. After incubation for 3 days in a microaerophilic atmosphere at 37° C., the diameter of the zone of inhibition was measured (Glupczynsky, 1996; McNulty et al., 2002).

[2] = test system: H. pylori; test: as above; conditions: 100 and 200 mg/disc (so in the source), 72 h
How it was run: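 Clinical strains HP001, HP002 and ATCC 700392, 43504, 49503 (10^8 CFU/mL) spread on supplemented BHI agar; 5 mm discs loaded with 100 and 200 […] compound in ethanol or DMSO. Zones read after 72 h microaerophilic growth at 37 °C; scored + (10-20 mm), ++ (20-30 mm), +++ (>30 mm), Nil <10 mm.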

[3] = test system: H. pylori; test: as above; set-up: key: strongly active (diameter>30 mm) and were given a score of 3^+; intermediate active (^˜20-30 mm diameter) and were given a score of 2^+; moderately active (^˜10-20 min diameter) and were given a score of 1^+; not active (>10 mm diameter); conditions: 100 and 200 μg/disc, majority of the strains
Procedure: as §1, §2, §3

[4] = test system: H. pylori; test: Anti H. pylori spectrum (MIC) by agar dilution method; conditions: for MIC50: MIC against 50% of the strains of the panel; for MIC Range: panel of 6 clinical isolates and 4 standard strains
How it was run: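 Agar dilution per CLSI against six clinical isolates and four standard strains on BHI agar with 7% FCS, 0.5% IsoVitalex and DENT. Inoculum ~10^8 CFU/mL; 2-fold compound dilutions from 1.56-100; 72 h microaerophilic at 37 °C. MIC read visually as no growth, in duplicate; MIC50 covers 50% of strains.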

Row | MIC50 [4] | MIC Range [4] | Compound | Activity class by inhibition zone diameter [1] | Inhibition zone diameter (score) ([2]; ATCC standard strain 43504) | Inhibition zone diameter (score) ([2]; ATCC standard strain 49503) | Inhibition zone diameter (score) ([2]; ATCC standard strain 700392) | Inhibition zone diameter (score) ([2]; clinical strain HP001) | Inhibition zone diameter (score) ([2]; clinical strain HP002) | Activity class by inhibition zone diameter [3]
1 |  |  | O=c1cc(-c2ccccc2)oc2cc(OCCCN3CCOCC3)cc(O)c12 [CHM-2, 5-Hydroxy-7-(3-morpholin-4-yl-propoxy)-2-phenyl-chromen-4-one] | not active | Nil (‘Nil’ means zone of inhibition below 10 mm) | Nil (‘Nil’ means zone of inhibition below 10 mm) | Nil (‘Nil’ means zone of inhibition below 10 mm) | Nil (‘Nil’ means zone of inhibition below 10 mm) | Nil (‘Nil’ means zone of inhibition below 10 mm) | not active
2 |  |  | CN(C)CCCCCCOc1cc(O)c2c(=O)cc(-c3ccccc3)oc2c1 [CHN-1, 7-(6-Dimethylamino-hexyloxy)-5-hydroxy-2-phenyl-chromen-4-one] | not active | Nil (‘Nil’ means zone of inhibition below 10 mm) | Nil (‘Nil’ means zone of inhibition below 10 mm) | Nil (‘Nil’ means zone of inhibition below 10 mm) | Nil (‘Nil’ means zone of inhibition below 10 mm) | Nil (‘Nil’ means zone of inhibition below 10 mm) | not active
3 | much higher | much higher | O=c1cc(-c2ccccc2)oc2cc(O)cc(O)c12 [Chrysin, 5,7-Dihydroxy-2-phenyl-chromen-4-one, reference compound] | not active | Nil (‘Nil’ means zone of inhibition below 10 mm) | Nil (‘Nil’ means zone of inhibition below 10 mm) | Nil (‘Nil’ means zone of inhibition below 10 mm) | Nil (‘Nil’ means zone of inhibition below 10 mm) | Nil (‘Nil’ means zone of inhibition below 10 mm) | not active
4 |  |  | CCCCCCCCCCCCCCCCC(=O)Oc1cc2oc(-c3ccccc3)cc(=O)c2c(O)c1OC [ORC-16, Heptadecanoic acid 5-hydroxy-6-methoxy-4-oxo-2-phenyl-4H-chromen-7-yl ester] | not active | Nil (‘Nil’ means zone of inhibition below 10 mm) | Nil (‘Nil’ means zone of inhibition below 10 mm) | Nil (‘Nil’ means zone of inhibition below 10 mm) | Nil (‘Nil’ means zone of inhibition below 10 mm) | Nil (‘Nil’ means zone of inhibition below 10 mm) | not active
5 | much higher | much higher | COc1c(O)cc2oc(-c3ccccc3)cc(=O)c2c1O [Oroxylin A, reference compound] | not active | Nil (‘Nil’ means zone of inhibition below 10 mm) | Nil (‘Nil’ means zone of inhibition below 10 mm) | Nil (‘Nil’ means zone of inhibition below 10 mm) | Nil (‘Nil’ means zone of inhibition below 10 mm) | Nil (‘Nil’ means zone of inhibition below 10 mm) | not active
